Data taken from paper PMC4298654, “In vivo formation of N-acyl-fumonisin B1” (Mycotoxin Research, 2014).
Like-named read-outs stand apart in the source and are kept apart here.

Legend:
[1] = In vivo formation of NAFB1 and NAHFB1 in rat kidney and liver (HPLC-ESI-MS/MS); conditions: kidney; FB1 2.77 or HFB1 2.47 μmol/kg body weight per day ip, 5 days
[2] = tested on: sphingolipid metabolism; experiment: Sphingolipid levels in rat kidney and liver after ip FB1 or HFB1; assay type: in vivo; conditions: 5 days
Text: The study protocol was approved by the Institutional Animal Care and Use Committee, Richard B. Russell Agricultural Research Center, Athens, GA. Male Sprague–Dawley rats (Harlan Industries, Indianapolis, IN, USA), 7 weeks of age at receipt, were individually housed in stainless steel, wire mesh cages in an environmentally controlled room having a 12-h light/dark cycle. Food (2019 Global Rodent Diet, Teklad, Madison, WI, USA) and fresh tap water were provided ad libitum. After a 1 week acclimation period, the animals were randomly assigned to five groups (n = 2/group) having mean weights of 215 to 216 g (weight range of all animals, 211 to 220 g). For five consecutive days, they were observed, weighed, and given an intraperitoneal injection (ip) of 0 (vehicle), 0.5, 1.0, or 2.0 mg/kg body weight FB1 (provided by R. Eppley, US FDA), 1.0 mg/kg body weight HFB1 (positive control) (Voss et al. [2009]), or vehicle (0.9 % physiological saline). These doses corresponded to 0.69, 1.38, and 2.77 μmol FB1/kg body weight and 2.47 μmol/kg body weight HFB1 per day. In order to compare the effects of FB1 and HFB1, dosages will be expressed as molar concentrations and, on this basis, the high dose of FB1 is roughly equivalent to that of the positive control dose of HFB1. Dosing solutions were sterile filtered and administered at a volume rate of 10 ml/kg body weight. The animals were fasted overnight prior to administration of the final dose. The rats were euthanized (CO2 inhalation and exsanguination) 60 to 90 min following the final dose administration and examined by necropsy. The kidney and liver specimens were fixed in 10 % neutral buffered formalin, processed, and microscopically evaluated without knowledge of the animal’s identity or treatment group. Three representative liver and kidney specimens (100 mg each) were also collected, immediately frozen, and stored (−80 °C) until processed, at which time the tissues were thawed and homogenized in distilled/deionized water (1 ml water/100 mg tissue). The homogenates were lyophilized before they were shipped by overnight courier for the analysis of fumonisin metabolites and sphingolipids.
Lyophilized liver and kidney tissues (100 mg wet weight equivalents) were processed for the quantification of FB1, HFB1, NAFB1, NAHFB1, and sphingolipids. Preparation of the tissue samples was performed according to a previously published method (Harrer et al. [2013]). For the quantification of FB1 and HFB1, a d6-labeled derivative of FB1 (FB1-d6) was used as the internal standard. Synthetic derivatives with a heptadecanoic fatty acid (C17:0) residue were used as internal standards for the quantification of N-acyl-fumonisins and ceramides (N-C17:0-FB1, N-C17:0-HFB1, and N-C17:0-ceramide). The sphingoid bases and their phosphate derivatives were quantified using synthetic derivatives with a C17-acyl-backbone: sphingosine (C17:1), sphingosine-1-phosphate (C17:1), sphinganine (C17:0), sphinganine-1-phosphate (C17:0) as internal standards. The standards were dissolved in methanol:chloroform (2:1, v/v) and then mixed with the tissue samples. The samples spiked with internal standard were kept at room temperature for 30 min before being processed further. The internal standard-spiked samples were first extracted with ethyl acetate, isopropanol, and water (60:30:10, v/v/v) and a second time using methanol, chloroform, and water (60:30:10, v/v/v). The extracts were combined, the solvents removed by evaporation, and the dried samples stored at−80 °C till analyzed.

[3] = tested on: rat liver and kidney; experiment: Histological examination of rat liver and kidney; assay type: in vivo; conditions: ip, 5 days; FB1 0.5, 1.0, 2.0 mg/kg or HFB1 1.0 mg/kg body weight per day; n = 2/group
Text: The study protocol was approved by the Institutional Animal Care and Use Committee, Richard B. Russell Agricultural Research Center, Athens, GA. Male Sprague–Dawley rats (Harlan Industries, Indianapolis, IN, USA), 7 weeks of age at receipt, were individually housed in stainless steel, wire mesh cages in an environmentally controlled room having a 12-h light/dark cycle. Food (2019 Global Rodent Diet, Teklad, Madison, WI, USA) and fresh tap water were provided ad libitum. After a 1 week acclimation period, the animals were randomly assigned to five groups (n = 2/group) having mean weights of 215 to 216 g (weight range of all animals, 211 to 220 g). For five consecutive days, they were observed, weighed, and given an intraperitoneal injection (ip) of 0 (vehicle), 0.5, 1.0, or 2.0 mg/kg body weight FB1 (provided by R. Eppley, US FDA), 1.0 mg/kg body weight HFB1 (positive control) (Voss et al. [2009]), or vehicle (0.9 % physiological saline). […] In order to compare the effects of FB1 and HFB1, dosages will be expressed as molar concentrations and, on this basis, the high dose of FB1 is roughly equivalent to that of the positive control dose of HFB1. […] The kidney and liver specimens were fixed in 10 % neutral buffered formalin, processed, and microscopically evaluated without knowledge of the animal’s identity or treatment group. […]

[4] = design: method as in Martinez-Larranaga et al. 1999; conditions: single dose, ref Martinez-Larranaga et al. 1999, cited from earlier work
[5] = design: method as in Bulder et al. 2012; conditions: ref Bulder et al. 2012; cited from earlier work
[6] = rats fed with fumonisin-contaminated diet; ref Riley and Voss 2006; cited from earlier work
[7] = kidney, dose High: 2.77 μmol FB1/kg or 2.47 μmol HFB1/kg body weight per day ip
[8] = kidney, dose Low: 0.69 μmol FB1/kg body weight per day ip
[9] = kidney, dose Mid: 1.38 μmol FB1/kg body weight per day ip
[10] = liver, dose High: 2.77 μmol FB1/kg or 2.47 μmol HFB1/kg body weight per day ip
[11] = liver, dose Low: 0.69 μmol FB1/kg body weight per day ip
[12] = liver, dose Mid: 1.38 μmol FB1/kg body weight per day ip

CCCC[C@@H](C)[C@@H](OC(=O)C[C@@H](CC(=O)O)C(=O)O)[C@H](C[C@@H](C)C[C@H](O)CCCC[C@@H](O)C[C@H](O)[C@H](C)N)OC(=O)C[C@@H](CC(=O)O)C(=O)O [FB1, Fumonisin B1]
metabolites of the dosed mycotoxin found in the kidney [1]: less than 0.5 nmol/g
tissue ceramide concentrations ([2]; kidney and liver, FB1 ip): decreased in both tissues
levels of sphingoid bases and 1-phosphates (total sphingosine, total sphinganine) in tissues compared to vehicle-treated controls ([2]; kidney and liver, ip): increased amounts
Sa/So ratio [2, 7]: 3.8 ± 1.8
sphinganine (Sa) [2, 7]: 207 ± 79.9 nmol/g
sphinganine-1-phosphate (Sa1P) [2, 7]: 19.9 ± 1.0 nmol/g
sphingosine (So) [2, 7]: 56 ± 6.2 nmol/g
sphingosine-1-phospate (So1P) [2, 7]: 21.6 ± 4.5 nmol/g
Sa/So ratio [2, 8]: 4.1 ± 1.0
sphinganine (Sa) [2, 8]: 252 ± 15.6 nmol/g
sphinganine-1-phosphate (Sa1P) [2, 8]: 16.7 ± 0.5 nmol/g
sphingosine (So) [2, 8]: 63 ± 11.5 nmol/g
sphingosine-1-phospate (So1P) [2, 8]: 21.4 ± 4.1 nmol/g
Sa/So ratio [2, 9]: 2.5 ± 0.2
sphinganine (Sa) [2, 9]: 146 ± 11.3 nmol/g
sphinganine-1-phosphate (Sa1P) [2, 9]: 11.3 ± 1.5 nmol/g
sphingosine (So) [2, 9]: 59 ± 8.3 nmol/g
sphingosine-1-phospate (So1P) [2, 9]: 20.8 ± 0.7 nmol/g
Sa/So ratio [2, 10]: 5.9 ± 0.0
sphinganine (Sa) [2, 10]: 81 ± 17.1 nmol/g
sphinganine-1-phosphate (Sa1P) [2, 10]: 0.9 ± 0.5 nmol/g
sphingosine (So) [2, 10]: 14 ± 2.9 nmol/g
sphingosine-1-phospate (So1P) [2, 10]: 1.0 ± 0.3 nmol/g
Sa/So ratio [2, 11]: 4.2 ± 0.9
sphinganine (Sa) [2, 11]: 68 ± 27.6 nmol/g
sphinganine-1-phosphate (Sa1P) [2, 11]: 0.2 ± 0.2 nmol/g
sphingosine (So) [2, 11]: 16 ± 3.3 nmol/g
sphingosine-1-phospate (So1P) [2, 11]: 0.4 ± 0.2 nmol/g
Sa/So ratio [2, 12]: 5.5 ± 1.2
sphinganine (Sa) [2, 12]: 88 ± 15.1 nmol/g
sphinganine-1-phosphate (Sa1P) [2, 12]: 0.4 ± 0.1 nmol/g
sphingosine (So) [2, 12]: 17 ± 6.4 nmol/g
sphingosine-1-phospate (So1P) [2, 12]: 0.8 ± 0.0 nmol/g
microscopic appearance of kidney and liver [3]: Mild to moderate apoptotic, mitotic, and other effects consistent with fumonisin exposure
AUCtissue/AUCplasma ratio ([4]; kidney): 29.9
AUCtissue/AUCplasma ratio ([4]; liver): 2.03
absorption after oral exposure [5]: < 5 % of dose
FB1 concentration (ng/g wet weight) in the kidney relative to the liver [6]: approximately tenfold higher
